This series concerns CCRIS mutagenicity, Ames/micronucleus/aberration tests. Briefly: CCRIS mutagenicity studies.
Where [1] appears, read: Test System: AMES SALMONELLA TYPHIMURIUM, Strain/Indicator: TA98, Metabolic Activation: NONE, Method: STANDARD PLATE.
The mark [2] stands for this setting: Test System: AMES SALMONELLA TYPHIMURIUM, Strain/Indicator: TA98, Metabolic Activation: RAT, LIVER, S-9, AROCLOR 1254, Method: STANDARD PLATE.
[3] abbreviates: Test System: AMES SALMONELLA TYPHIMURIUM, Strain/Indicator: TA100, Metabolic Activation: NONE, Method: STANDARD PLATE.
Setting [4] is: Test System: AMES SALMONELLA TYPHIMURIUM, Strain/Indicator: TA100, Metabolic Activation: RAT, LIVER, S-9, AROCLOR 1254, Method: STANDARD PLATE.
[5] abbreviates: Test System: AMES SALMONELLA TYPHIMURIUM, Strain/Indicator: TA1535, Metabolic Activation: NONE, Method: STANDARD PLATE.
[6] abbreviates: Test System: AMES SALMONELLA TYPHIMURIUM, Strain/Indicator: TA1535, Metabolic Activation: RAT, LIVER, S-9, AROCLOR 1254, Method: STANDARD PLATE.
Setting [7] is: Test System: AMES SALMONELLA TYPHIMURIUM, Strain/Indicator: TA1537, Metabolic Activation: NONE, Method: STANDARD PLATE.
Setting [8] is: Test System: AMES SALMONELLA TYPHIMURIUM, Strain/Indicator: TA1537, Metabolic Activation: RAT, LIVER, S-9, AROCLOR 1254, Method: STANDARD PLATE.
Setting [9] is: Test System: AMES SALMONELLA TYPHIMURIUM, Strain/Indicator: TA1538, Metabolic Activation: NONE, Method: STANDARD PLATE.
The mark [10] stands for this setting: Test System: AMES SALMONELLA TYPHIMURIUM, Strain/Indicator: TA1538, Metabolic Activation: RAT, LIVER, S-9, AROCLOR 1254, Method: STANDARD PLATE.

We go through eight molecules from PubChem BioAssay AID1259407 (Chemical Carcinogenesis Research Information System (CCRIS), 2018).

Calls of active or inactive are those of the source. No rule for the calls is given here.

For the molecule `O=C(O)[C@H](O)[C@@H](O)C(=O)O`, the mutagenic call (End Point: IN VIVO MICRONUCLEUS, Test System: BONE MARROW POLYCHROMATIC ERYTHROCYTES, Species: MOUSE, Strain/Sex: DDY/MALE, Route: IP) was “inactive; negative; authors report chemical name as sodium d-tartrate with cas number of s”; the mutagenic call (Test System: AMES SALMONELLA TYPHIMURIUM, Strain/Indicator: TA97, Metabolic Activation: NONE, Method: PREINCUBATION) was “inactive; negative”; the mutagenic call (Test System: AMES SALMONELLA TYPHIMURIUM, Strain/Indicator: TA97, Metabolic Activation: RAT, LIVER, S-9, AROCLOR 1254, Method: PREINCUBATION) is “inactive; negative”; the mutagenic call (Test System: AMES SALMONELLA TYPHIMURIUM, Strain/Indicator: TA98, Metabolic Activation: NONE, Method: PREINCUBATION) is “inactive; negative”; the mutagenic call under setting [1] was “inactive; negative”; the mutagenic call (Test System: AMES SALMONELLA TYPHIMURIUM, Strain/Indicator: TA98, Metabolic Activation: RAT LIVER S-9, PHENOBARBITAL AND BETA-NAPHTHOFLAVONE, Method: PREINCUBATION) was “inactive; negative”. Further, the mutagenic call is, setting by setting: under setting [2], “inactive; negative”; (Test System: AMES SALMONELLA TYPHIMURIUM, Strain/Indicator: TA100, Metabolic Activation: NONE, Method: PREINCUBATION) “inactive; negative”; under setting [3], “inactive; negative”; (Test System: AMES SALMONELLA TYPHIMURIUM, Strain/Indicator: TA100, Metabolic Activation: RAT LIVER S-9, PHENOBARBITAL AND BETA-NAPHTHOFLAVONE, Method: PREINCUBATION) “inactive; negative”; under setting [4], “inactive; negative”; (Test System: AMES SALMONELLA TYPHIMURIUM, Strain/Indicator: TA102, Metabolic Activation: NONE, Method: PREINCUBATION) “inactive; negative”. In addition, the mutagenic call by setting is: (Test System: AMES SALMONELLA TYPHIMURIUM, Strain/Indicator: TA102, Metabolic Activation: RAT, LIVER, S-9, AROCLOR 1254, Method: PREINCUBATION) “inactive; negative”; (Test System: AMES SALMONELLA TYPHIMURIUM, Strain/Indicator: TA1535, Metabolic Activation: NONE, Method: PREINCUBATION) “inactive; negative”; under setting [5], “inactive; negative”; (Test System: AMES SALMONELLA TYPHIMURIUM, Strain/Indicator: TA1535, Metabolic Activation: RAT LIVER S-9, PHENOBARBITAL AND BETA-NAPHTHOFLAVONE, Method: PREINCUBATION) “inactive; negative”; under setting [6], “inactive; negative”; (Test System: AMES SALMONELLA TYPHIMURIUM, Strain/Indicator: TA1537, Metabolic Activation: NONE, Method: PREINCUBATION) “inactive; negative”. The mutagenic call is, setting by setting: under setting [7], “inactive; negative”; (Test System: AMES SALMONELLA TYPHIMURIUM, Strain/Indicator: TA1537, Metabolic Activation: RAT LIVER S-9, PHENOBARBITAL AND BETA-NAPHTHOFLAVONE, Method: PREINCUBATION) “inactive; negative”; under setting [8], “inactive; negative”; under setting [9], “inactive; negative”; under setting [10], “inactive; negative”; (Test System: E. COLI, Strain/Indicator: WP2, Metabolic Activation: NONE, Method: STANDARD PLATE) “inactive; negative”. The mutagenic call is, setting by setting: (Test System: E. COLI, Strain/Indicator: WP2, Metabolic Activation: RAT, LIVER, S-9, AROCLOR 1254, Method: STANDARD PLATE) “inactive; negative”; (Test System: E.COLI, Strain/Indicator: WP2UVRA/PKM101, Metabolic Activation: NONE, Method: PREINCUBATION) “inactive; negative”; (Test System: E.COLI, Strain/Indicator: WP2UVRA/PKM101, Metabolic Activation: RAT LIVER S-9, PHENOBARBITAL AND BETA-NAPHTHOFLAVONE, Method: PREINCUBATION) “inactive; negative”.
Take `c1ccc2c(c1)CC[C@@H]1CCCC[C@@H]21`: the mutagenic call (Test System: AMES SALMONELLA TYPHIMURIUM, Strain/Indicator: TA98, Metabolic Activation: RAT, LIVER, S-9, SODIUM PHENOBARBITAL AND BETA-NAPHTHOFLAVONE, Method: STANDARD PLATE) was “inactive; negative” and the mutagenic call (Test System: AMES SALMONELLA TYPHIMURIUM, Strain/Indicator: TA100, Metabolic Activation: RAT, LIVER, S-9, SODIUM PHEOBARBITAL AND BETA-NAPHTHOFLAVONE, Method: STANDARD PLATE) was “inactive; negative”.
`Nc1ccc2c(=O)[nH]sc2c1`: the mutagenic call is, setting by setting: under setting [1], “inactive; negative”; (Test System: AMES SALMONELLA TYPHIMURIUM, Strain/Indicator: TA98, Metabolic Activation: S-9, Method: STANDARD PLATE) “inactive; negative”; under setting [3], “inactive; negative”; (Test System: AMES SALMONELLA TYPHIMURIUM, Strain/Indicator: TA100, Metabolic Activation: S-9, Method: STANDARD PLATE) “inactive; negative”; under setting [5], “inactive; negative”; (Test System: AMES SALMONELLA TYPHIMURIUM, Strain/Indicator: TA1535, Metabolic Activation: S-9, Method: STANDARD PLATE) “inactive; negative”. For the same molecule, the mutagenic call runs as follows: under setting [7], “inactive; negative”; (Test System: AMES SALMONELLA TYPHIMURIUM, Strain/Indicator: TA1537, Metabolic Activation: S-9, Method: STANDARD PLATE) “inactive; negative”.
With `O=c1c(O)c(C2=CC(O)(CCO)C(O)(CCO)C=C2)oc2c1C(O)=CC(O)(CCO)C2` (configuration not stated), the mutagenic call is, setting by setting: under setting [1], “inactive; negative”; under setting [2], “inactive; negative”; under setting [3], “inactive; negative”; under setting [4], “inactive; negative”; under setting [5], “inactive; negative”; under setting [6], “inactive; negative”. Besides, the mutagenic call was “inactive; negative” under setting [7], “inactive; negative” under setting [8], “inactive; negative” under setting [9] and “inactive; negative” under setting [10].
Take `O=[N+]([O-])c1ccc(-c2ncn[nH]2)o1`: the mutagenic call (Test System: E. COLI, Strain/Indicator: WP2 UVRA, Metabolic Activation: NONE, Method: SPOT) is “active; positive”.
For the molecule `CCCOc1cc(N=Nc2ccc(N(CCO)CCO)cc2)ccc1N=Nc1c(S(=O)(=O)O)cc2ccc(N)cc2c1O`, the mutagenic call runs as follows: under setting [1], “inactive; negative”; under setting [2], “active; positive”; under setting [3], “inactive; negative”; under setting [4], “inactive; negative”; under setting [9], “inactive; negative”; under setting [10], “active; positive”.
Consider `O=NN1CN(N=O)CN(N=O)C1`, for which the mutagenic call is “inactive; negative” (Test System: Ames Salmonella typhimurium, Strain/Indicator: TA97a, Metabolic Activation: None, Method: Preincubation); “active; positive” (Test System: Ames Salmonella typhimurium, Strain/Indicator: TA97a, Metabolic Activation: Rat, Liver, S-9, Aroclor 1254, Method: Preincubation); “inactive; negative” (Test System: Ames Salmonella typhimurium, Strain/Indicator: TA98, Metabolic Activation: Rat, Liver, S-9, Aroclor 1254, Method: Preincubation); “inactive; negative” (Test System: Ames Salmonella typhimurium, Strain/Indicator: TA100, Metabolic Activation: Rat, Liver, S-9, Aroclor 1254, Method: Preincubation); “active; positive” (Test System: Ames Salmonella typhimurium, Strain/Indicator: TA102, Metabolic Activation: Rat, Liver, S-9, Aroclor 1254, Method: Preincubation).
As to `O=[N+]([O-])c1cc2c3c(c1)CCc1cccc(c1-3)CC2`, the mutagenic call is “active; positive” (Test System: AMES SALMONELLA TYPHIMURIUM, Strain/Indicator: TA98(1,8-DNP6), Metabolic Activation: NONE, Method: STANDARD PLATE); “active; positive” (Test System: AMES SALMONELLA TYPHIMURIUM, Strain/Indicator: TA98(NR), Metabolic Activation: NONE, Method: STANDARD PLATE); “active; positive” under setting [1].
